# In patent publication US6737383B1, “Herbicidal oxadiazolidines” (priority 1999, dated 2004):
# Tests used:
# bedstraw = assay: Test B pre/postemergence bedstraw; type: in vivo, Galium aparine; conditions: Postemergence; for Plant response rating, Bedstraw: scale 0 to 10, 0 is no effect, 10 is complete control; for Bedstraw plant response rating: scale of 0 to 10 where 0 is no effect and 10 is complete control
# How it was run: (§1)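 Test chemicals in a non-phytotoxic solvent mixture with surfactant were sprayed preemergence onto planted seeds and postemergence onto plants 2 to 18 cm tall (1- to 4-leaf stage). After twelve to sixteen days in a greenhouse, injury was visually rated against untreated controls from 0 (no effect) to 10 (complete control).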
# blackgrass = assay: Test B pre/postemergence blackgrass; type: in vivo, Alopecurus myosuroides
# How it was run: as §1
# surinam grass = assay: Test B pre/postemergence surinam grass; type: in vivo, Brachiaria decumbens
# How it was run: as §1
# cocklebur = assay: Test B pre/postemergence cocklebur; type: in vivo, Xanthium strumarium
# How it was run: as §1
# corn = assay: Test B pre/postemergence corn; type: in vivo, Zea mays
# How it was run: as §1
# crabgrass = assay: Test B pre/postemergence crabgrass; type: in vivo, Digitaria sanguinalis
# How it was run: as §1
# giant foxtail = assay: Test B pre/postemergence giant foxtail; type: in vivo, Setaria faberii
# How it was run: as §1
# morningglory = assay: Test B pre/postemergence morningglory; type: in vivo, Ipomoea hederacea
# How it was run: as §1
# pigweed = assay: Test B pre/postemergence pigweed; type: in vivo, Amaranthus retroflexus
# How it was run: as §1
# rape = assay: Test B pre/postemergence rape; type: in vivo, Brassica napus
# How it was run: as §1
# soybean = assay: Test B pre/postemergence soybean; type: in vivo, Glycine max
# How it was run: as §1
# sugar beet = assay: Test B pre/postemergence sugar beet; type: in vivo, Beta vulgaris
# How it was run: as §1
# velvetleaf = assay: Test B pre/postemergence velvetleaf; type: in vivo, Abutilon theophrasti
# How it was run: as §1
# wheat = assay: Test B pre/postemergence wheat; type: in vivo, Triticum aestivum
# How it was run: as §1
# wild oat = assay: Test B pre/postemergence wild oat; type: in vivo, Avena fatua
# How it was run: as §1
# purple nutsedge = assay: Test B pre/postemergence purple nutsedge; type: in vivo, Cyperus rotundus
# How it was run: as §1
# rice = assay: Test B flood test rice; type: in vivo, Oryza sativa
# How it was run: (§2)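 Each value is a visual injury score relative to controls, with 10 meaning complete control and 0 no effect. Evaluation took place twelve to sixteen days after the 2-leaf-stage plants were treated and kept in the greenhouse.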
# smallflower flatsedge = assay: Test B flood test smallflower flatsedge; type: in vivo, Cyperus difformis
# How it was run: as §2
# duck salad = assay: Test B flood test duck salad; type: in vivo, Heteranthera limosa; conditions: for Plant response rating, Ducksalad: scale 0 to 10, 0 is no effect, 10 is complete control; for Ducksalad plant response rating: scale of 0 to 10 where 0 is no effect and 10 is complete control
# How it was run: as §2
# bamyardgrass = assay: Test B flood test barnyardgrass; type: in vivo, Echinochloa crus-galli; conditions: for Plant response rating, Barnyardgrass: scale 0 to 10, 0 is no effect, 10 is complete control; for Barnyardgrass plant response rating: scale of 0 to 10 where 0 is no effect and 10 is complete control
# How it was run: as §2
# [1] = Postemergence, Rate 125 g/ha, scale 0 to 10, 0 is no effect, 10 is complete control
# [2] = Postemergence, Rate 250 g/ha, scale 0 to 10, 0 is no effect, 10 is complete control
# [3] = Postemergence, Rate 500 g/ha, scale of 0 to 10 where 0 is no effect and 10 is complete control
# [4] = Preemergence, Rate 62 g/ha, scale 0 to 10 (0 no effect, 10 complete control)
# [5] = Preemergence, Rate 250 g/ha, scale of 0 to 10 where 0 is no effect and 10 is complete control
# [6] = Preemergence, Rate 500 g/ha, scale 0 to 10, 0 is no effect, 10 is complete control
# [7] = Rate 62 g/ha, Postemergence, scale of 0 to 10 where 0 is no effect and 10 is complete control
# [8] = Preemergence, Rate 125 g/ha, scale of 0 to 10 where 0 is no effect and 10 is complete control
# [9] = Preemergence, Rate 250 g/ha, scale 0 to 10, 0 is no effect, 10 is complete control
# [10] = Postemergence section (flood test species), Rate 500 g/ha, scale of 0 to 10 where 0 is no effect and 10 is complete control
# [11] = flood test species, listed under Postemergence, Rate 250 g/ha, scale 0 to 10, 0 is no effect, 10 is complete control
# [12] = Postemergence (flood test), Rate 125 g/ha
# [13] = Postemergence section (flood test species), Rate 500 g/ha
# [14] = Rate 62 g/ha, Postemergence (flood test species)
# [15] = flood test species, listed under Postemergence, Rate 250 g/ha
structure (smiles),measurement,setting,value
CC(C)Cn1c(=O)on(C(=O)N(c2ccc(Cl)cc2)C(C)C)c1=O [Compound 417],"Plant response rating, Bedstraw",bedstraw; Rate 125 g/ha,0
same,"Plant response rating, Bedstraw",bedstraw; Rate 250 g/ha,0
same,Bedstraw plant response rating,bedstraw; Rate 500 g/ha,6
same,Bedstraw plant response rating,bedstraw; Rate 62 g/ha,0
same,"Plant response rating, Blackgrass",blackgrass; [1],0
same,"Plant response rating, Blackgrass",blackgrass; [2],0
same,Blackgrass plant response rating,blackgrass; [3],0
same,"Plant response rating, Blackgrass",blackgrass; [4],3
same,Blackgrass plant response rating,blackgrass; [5],7
same,Blackgrass plant response rating,blackgrass; [6],9
same,Blackgrass plant response rating,blackgrass; [7],0
same,"Plant response rating, B. signalgrass",surinam grass; [1],0
same,"Plant response rating, B. signalgrass",surinam grass; [2],0
same,B. signalgrass plant response rating,surinam grass; [3],0
same,"Plant response rating, B. signalgrass",surinam grass; [4],2
same,"Plant response rating, B. signalgrass",surinam grass; [8],3
same,B. signalgrass plant response rating,surinam grass; [5],7
same,B. signalgrass plant response rating,"surinam grass; Preemergence, Rate 500 g/ha, scale of 0 to 10 where 0 is no effect and 10 is complete control",7
same,B. signalgrass plant response rating,surinam grass; [7],0
same,"Plant response rating, Cocklebur",cocklebur; [1],0
same,"Plant response rating, Cocklebur",cocklebur; [2],0
same,Cocklebur plant response rating,cocklebur; [3],0
same,"Plant response rating, Cocklebur",cocklebur; [4],0
same,"Plant response rating, Cocklebur",cocklebur; [8],0
same,Cocklebur plant response rating,cocklebur; [9],0
same,Cocklebur plant response rating,cocklebur; [6],0
same,Cocklebur plant response rating,cocklebur; [7],0
same,"Plant response rating, Corn",corn; [1],0
same,"Plant response rating, Corn",corn; [2],0
same,Corn plant response rating,corn; [3],0
same,"Plant response rating, Corn",corn; [4],0
same,"Plant response rating, Corn",corn; [8],0
same,Corn plant response rating,corn; [9],0
same,Corn plant response rating,corn; [6],0
same,Corn plant response rating,corn; [7],0
same,"Plant response rating, Crabgrass",crabgrass; [1],0
same,"Plant response rating, Crabgrass",crabgrass; [2],2
same,Crabgrass plant response rating,crabgrass; [3],2
same,"Plant response rating, Crabgrass",crabgrass; [4],6
same,"Plant response rating, Crabgrass",crabgrass; [8],9
same,Crabgrass plant response rating,crabgrass; [9],9
same,Crabgrass plant response rating,crabgrass; [6],10
same,Crabgrass plant response rating,crabgrass; [7],0
same,"Plant response rating, Giant foxtail",giant foxtail; [1],0
same,"Plant response rating, Giant foxtail",giant foxtail; [2],1
same,Giant foxtail plant response rating,giant foxtail; [3],8
same,"Plant response rating, Giant foxtail",giant foxtail; [4],4
same,"Plant response rating, Giant foxtail",giant foxtail; [8],9
same,Giant foxtail plant response rating,giant foxtail; [9],10
same,Giant foxtail plant response rating,giant foxtail; [6],10
same,Giant foxtail plant response rating,giant foxtail; [7],0
same,"Plant response rating, Morningglory",morningglory; [2],9
same,Morningglory plant response rating,morningglory; [3],9
same,"Plant response rating, Morningglory",morningglory; [4],0
same,"Plant response rating, Morningglory",morningglory; [8],0
same,Morningglory plant response rating,morningglory; [9],0
same,Morningglory plant response rating,morningglory; [6],0
same,"Plant response rating, Redroot pigweed",pigweed; [2],0
same,Redroot pigweed plant response rating,pigweed; [3],3
same,"Plant response rating, Redroot pigweed",pigweed; [4],0
same,"Plant response rating, Redroot pigweed",pigweed; [8],0
same,Redroot pigweed plant response rating,pigweed; [9],4
same,Redroot pigweed plant response rating,pigweed; [6],10
same,"Plant response rating, Rape",rape; [2],0
same,Rape plant response rating,rape; [3],2
same,"Plant response rating, Rape",rape; [4],0
same,"Plant response rating, Rape",rape; [8],0
same,Rape plant response rating,rape; [9],5
same,Rape plant response rating,rape; [6],6
same,"Plant response rating, Soybean",soybean; [2],4
same,Soybean plant response rating,soybean; [3],6
same,"Plant response rating, Soybean",soybean; [4],0
same,"Plant response rating, Soybean",soybean; [8],0
same,Soybean plant response rating,soybean; [9],0
same,Soybean plant response rating,soybean; [6],0
same,"Plant response rating, Sugarbeets",sugar beet; [2],0
same,Sugarbeets plant response rating,sugar beet; [3],6
same,"Plant response rating, Sugarbeets",sugar beet; [4],0
same,"Plant response rating, Sugarbeets",sugar beet; [8],0
same,Sugarbeets plant response rating,sugar beet; [9],2
same,Sugarbeets plant response rating,sugar beet; [6],6
same,"Plant response rating, Velvetleaf",velvetleaf; [2],0
same,Velvetleaf plant response rating,velvetleaf; [3],0
same,"Plant response rating, Velvetleaf",velvetleaf; [4],0
same,"Plant response rating, Velvetleaf",velvetleaf; [8],0
same,Velvetleaf plant response rating,velvetleaf; [9],2
same,Velvetleaf plant response rating,velvetleaf; [6],6
same,Wheat plant response rating,wheat; [3],0
same,"Plant response rating, Wheat",wheat; [4],0
same,"Plant response rating, Wheat",wheat; [8],0
same,Wheat plant response rating,wheat; [9],0
same,Wheat plant response rating,wheat; [6],2
same,Wild oats plant response rating,wild oat; [3],0
same,"Plant response rating, Wild oats",wild oat; [4],0
same,"Plant response rating, Wild oats",wild oat; [8],0
same,Wild oats plant response rating,wild oat; [9],2
same,Wild oats plant response rating,wild oat; [6],4
same,"Plant response rating, Nutsedge",purple nutsedge; [2],0
same,Nutsedge plant response rating,purple nutsedge; [3],0
same,"Plant response rating, Nutsedge",purple nutsedge; [4],0
same,"Plant response rating, Nutsedge",purple nutsedge; [8],0
same,Nutsedge plant response rating,purple nutsedge; [9],0
same,Nutsedge plant response rating,purple nutsedge; [6],0
same,Rice plant response rating,rice; [10],0
same,"Plant response rating, Rice",rice; [11],0
same,S. Flatsedge plant response rating,smallflower flatsedge; [10],9
same,"Plant response rating, S. Flatsedge",smallflower flatsedge; [11],9
same,"Plant response rating, Ducksalad",duck salad; [12],0
same,Ducksalad plant response rating,duck salad; [13],3
same,Ducksalad plant response rating,duck salad; [14],0
same,"Plant response rating, Ducksalad",duck salad; [15],2
same,"Plant response rating, Barnyardgrass",bamyardgrass; [12],0
same,Barnyardgrass plant response rating,bamyardgrass; [13],8
same,Barnyardgrass plant response rating,bamyardgrass; [14],0
same,"Plant response rating, Barnyardgrass",bamyardgrass; [15],0
